Legend:
Type in all cases: in vivo, human
umami-taste [1] = assay: Sensory panel tasting of 0.3% NaCl solution; conditions: Solution B: 0.3% NaCl and 10 ppm geranyl lactamide; trained sensory panel of 20 women; Solution A (0.3% NaCl only): salty
Experimental: Two solutions were prepared: A a solution of 0.3% NaCl B a solution of 0.3% NaCl and 10 ppm geranyl lactamide The samples were tasted by a trained sensory panel composed of 20 women aged between 30 and 60.

umami-taste [2] = assay: Sensory panel tasting of 0.3% NaCl and 0.03% MSG solution; conditions: Solution B: 0.3% NaCl, 0.03% MSG and 10 ppm geranyl lactamide, trained sensory panel of 20 women, Solution A without compound: salty
Experimental: Two solutions were prepared: A a solution of 0.3% NaCl and 0.03% MSG B a solution of 0.3% NaCl, 0.03% MSG and 10 ppm geranyl lactamide The samples were tasted by a trained sensory panel composed of 20 women aged between 30 and 60.

umami-taste [3] = assay: Flavourist tasting of tomato ketchup; conditions: tomato ketchup with 20 ppm geranyl lactamide; flavourists (2 male, 2 female)
Experimental: A tomato ketchup was prepared from 19% tomato paste (28-30% dry weight), 8% of vinegar (15%), 3% of sodium chloride, 20% of sugar and 50% of water. To one half of the batch was added 20 ppm of geranyl lactamide.

umami-taste [4] = assay: Sensory panel tasting of flavoured potato chips; conditions: for taste description of potato chips: trained sensory panel of 20 women
Experimental: Plain potato chips were prepared. One part was flavoured with 1.2% sodium chloride (sample A) One part was flavoured with 1.2% sodium chloride and 0.3% mono sodium glutamate (sample b) One part was flavoured with 1.2% sodium chloride and 25 ppm geranyl lactamide (sample C). The samples were tasted by a trained sensory panel composed of 20 women aged between 30 and 60.

umami-taste [5] = assay: Flavourist tasting of tomato soup; conditions: tomato soup containing 15 ppm geranyl lactamide; flavourists (2 male, 2 female)
Experimental: A tomato soup mix was prepared from 9.4 g of sodium chloride, 1 g of mono sodium glutamate, 0.08 g ribonucleotides (ex yeast), 32 g of tomato powder (ex […]), 25.1 g of glucose, 21 g of starch (Ultrasperse 5 ex National Starch), 5 g of palm fat powder, 3 g of yeast powder, 1 g of onion powder, 0.15 g of carrot powder, 0.05 g of ground white pepper, 0.3 g of celery extract powder, 0.05 g of ground laurel leaf powder, and 1.85 g of sucrose. 25 G of the well mixed ingredients was added to 250 g of boiling water and stirred until completely dissolved. The reference soup was compared with a batch of the same soup containing 15 ppm of geranyl lactamide.

CC(C)=CCC/C(C)=C/CNC(=O)C(C)O (stereo not shown) [geranyl lactamide]
taste description (findings of the panel) (umami-taste [1]): salty, umami
taste description (findings of the panel) (umami-taste [2]): salty, umami, more bouillon-like, more complex, less sweet
taste of test ketchup compared with base ketchup (umami-taste [3]): clearly more umami, more salty and had a pleasant savoury note
panel preference among potato chip samples (umami-taste [4]; sample C (1.2% sodium chloride and 25 ppm geranyl lactamide) vs sample A (NaCl) and sample B (NaCl and 0.3% MSG)): preferred over the other two samples
taste description of potato chips (umami-taste [4]; sample C: 1.2% sodium chloride and 25 ppm geranyl lactamide): salty, umami, long lasting, savoury, bouillon
taste of test soup compared with reference soup (umami-taste [5]): more umami, had a long-lasting savoury aspect, was more salty and was more complex than the base soup

N[C@@H](CCC(=O)O)C(=O)[O-].[Na+] [mono sodium glutamate, reference compound]
taste description of potato chips (umami-taste [4]; sample B: 1.2% sodium chloride and 0.3% mono sodium glutamate): salty and umami

From patent US8815321B2, “Geranylamine derivatives as flavouring agents” (Givaudan S.A., priority 2009, dated 2014)
